For the assay, the system named is P388 leukemia ip, CD2F1 mice, survival T/C. In words: NCI In Vivo Anticancer Drug Screen. Data for tumor model P388 Leukemia (intraperitoneal) in CD2F1 (CDF1) mice. The conditions noted are these: endpoint: median survival time, higher = longer survival. The essentials: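 Mice carrying the transplanted tumor received test compound or vehicle. Survival was recorded in each group, and the value is the treated-group measurement divided by that of the vehicle-treated control group.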

Where [1] appears, read: dose: 100.0 mg/kg/injection, schedule: Q04DX002 (ip), vehicle: saline with Tween-80.
Where [2] appears, read: dose: 200.0 mg/kg/injection, schedule: Q04DX002 (ip), vehicle: saline with Tween-80.
Setting [3] is: dose: 400.0 mg/kg/injection, schedule: Q04DX002 (ip), vehicle: saline with Tween-80.
Where [4] appears, read: dose: 50.0 mg/kg/injection, schedule: Q01DX005 (ip), vehicle: Klucel (hydroxypropylcellulose) (HPC).
Where [5] appears, read: dose: 100.0 mg/kg/injection, schedule: Q01DX005 (ip), vehicle: Klucel (hydroxypropylcellulose) (HPC).
The mark [6] stands for this setting: dose: 200.0 mg/kg/injection, schedule: Q01DX005 (ip), vehicle: Klucel (hydroxypropylcellulose) (HPC).
Setting [7] is: dose: 60.0 mg/kg/injection, schedule: Q01DX005 (ip), vehicle: saline with Tween-80.
The mark [8] stands for this setting: dose: 120.0 mg/kg/injection, schedule: Q01DX005 (ip), vehicle: saline with Tween-80.
[9] abbreviates: dose: 240.0 mg/kg/injection, schedule: Q01DX005 (ip), vehicle: saline with Tween-80.
Where [10] appears, read: dose: 25.0 mg/kg/injection, schedule: Q01DX009 (ip), vehicle: saline with Tween-80.
Setting [11] is: dose: 50.0 mg/kg/injection, schedule: Q01DX009 (ip), vehicle: saline with Tween-80.
Where [12] appears, read: dose: 60.0 mg/kg/injection, schedule: Q01DX005 (ip), vehicle: Klucel (hydroxypropylcellulose) (HPC).
[13] abbreviates: dose: 120.0 mg/kg/injection, schedule: Q01DX005 (ip), vehicle: Klucel (hydroxypropylcellulose) (HPC).
Where [14] appears, read: dose: 240.0 mg/kg/injection, schedule: Q01DX005 (ip), vehicle: Klucel (hydroxypropylcellulose) (HPC).
Setting [15] is: dose: 50.0 mg/kg/injection, schedule: Q01DX009 (ip), vehicle: Klucel (hydroxypropylcellulose) (HPC).
The mark [16] stands for this setting: dose: 100.0 mg/kg/injection, schedule: Q01DX009 (ip), vehicle: Klucel (hydroxypropylcellulose) (HPC).
[17] abbreviates: dose: 200.0 mg/kg/injection, schedule: Q01DX009 (ip), vehicle: Klucel (hydroxypropylcellulose) (HPC).
Setting [18] is: dose: 100.0 mg/kg/injection, schedule: Q01DX009 (ip), vehicle: saline with Tween-80.
Where [19] appears, read: dose: 200.0 mg/kg/injection, schedule: Q01DX009 (ip), vehicle: saline with Tween-80.

Structures are written as SMILES. Several values for one entry are separate records, joined by “and”; a condition that tells them apart may be missing. Equal values may be shown once. Inconclusive results and toxic doses are left out.

As for `COC(=O)C1(C(=O)OC)CCCC2=NOC3CCC1C23` (stereo not given), the T/C reads like this: (dose: 6.25 mg/kg/injection, schedule: Q01DX002 (ip), vehicle: Klucel (hydroxypropylcellulose) (HPC)) 107 % of control; (dose: 12.5 mg/kg/injection, schedule: Q01DX002 (ip), vehicle: Klucel (hydroxypropylcellulose) (HPC)) 100 % of control; (dose: 25.0 mg/kg/injection, schedule: Q01DX002 (ip), vehicle: Klucel (hydroxypropylcellulose) (HPC)) 93 % of control.
Turning to `COc1ccc(N=Nc2c(C)nn(C(=S)SC)c2C)cc1`, the T/C under setting [1] is 100 % of control, the T/C under setting [2] was 105 % of control and the T/C under setting [3] is 109 % of control.
Regarding `N#CCCN(CCC#N)P(=O)(N(CCC#N)CCC#N)N(CCC#N)CCC#N`, the T/C is 100 % of control under setting [4], 96 % of control under setting [5] and 100 % of control under setting [6].
Turning to `CCC(CC)C1SCC(=O)N1c1nncs1` (stereo not given), the T/C (dose: 50.0 mg/kg/injection, schedule: Q01DX005 (ip), vehicle: saline with Tween-80) is 99 % of control; the T/C (dose: 100.0 mg/kg/injection, schedule: Q01DX005 (ip), vehicle: saline with Tween-80) was 105 % of control; the T/C (dose: 200.0 mg/kg/injection, schedule: Q01DX005 (ip), vehicle: saline with Tween-80) is 102 % of control.
Turning to `O=C1CNC(=O)C12C(=O)CNC2=O`, the T/C was 98 % of control under setting [1], 96 % of control under setting [2] and 98 % of control under setting [3].
Turning to `CCCN1CN2CCOC2C(C)(C)C1` (stereo not given), the T/C (dose: 40.0 mg/kg/injection, schedule: Q01DX009 (ip), vehicle: saline with Tween-80) was 112 % of control and the T/C (dose: 80.0 mg/kg/injection, schedule: Q01DX009 (ip), vehicle: saline with Tween-80) was 114 % of control.
Regarding `Cc1nnc(SCC2=C(C(=O)O)N3C(=O)C(NC(=O)Cn4cnnn4)C3SC2)s1` (stereo not given), the T/C reads like this: (dose: 25.0 mg/kg/injection, schedule: Q01DX009 (ip), vehicle: saline) 112 % of control; (dose: 400.0 mg/kg/injection, schedule: Q01DX009 (ip), vehicle: saline) 112 % of control.
Consider `O=S(=O)(Nc1cccnc1)c1ccccc1`, for which the T/C by setting is: under setting [7], 106 % of control; under setting [8], 100 % of control; under setting [9], 105 % of control.
Regarding `CC(=O)N(C(C)=O)/C(=C/c1cn(C(C)=O)c2ccccc12)C(=O)c1ccc(C)cc1`, the T/C is 105 % of control (dose: 100.0 mg/kg/injection, schedule: Q01DX001 (ip), vehicle: saline with Tween-80); 104 % of control (dose: 200.0 mg/kg/injection, schedule: Q01DX001 (ip), vehicle: saline with Tween-80); 98 % of control (dose: 400.0 mg/kg/injection, schedule: Q01DX001 (ip), vehicle: saline with Tween-80).
Consider `C=COC(=O)C(Cc1cc(OC)c(OC)c(OC)c1)NC(=O)OCc1ccccc1` (stereo not given), for which the T/C reads like this: under setting [1], 102 % of control; under setting [2], 101 % of control; under setting [3], 96 % of control.
Consider `O=C(Oc1cc([N+](=O)[O-])cc([N+](=O)[O-])c1)C(c1ccccc1)c1ccccc1`, for which the T/C is, setting by setting: (dose: 12.5 mg/kg/injection, schedule: Q01DX009 (ip), vehicle: saline with Tween-80) 106 % of control; under setting [10], 112 % of control; under setting [11], 118 % of control.
In the case of `CCCCCCCCCCCCCCCCCC(=O)OCC(=O)OCC(=O)[C@]1(O)Cc2c(O)c3c(c(O)c2[C@@H](OC2CC(N)C(O)C(C)O2)C1)C(=O)c1c(OC)cccc1C3=O` (stereo not given in full), the T/C is, setting by setting: (dose: 0.39 mg/kg/injection, schedule: Q01DX009 (ip), vehicle: water) 150 % of control; (dose: 0.78 mg/kg/injection, schedule: Q01DX009 (ip), vehicle: water) 157 % of control; (dose: 1.56 mg/kg/injection, schedule: Q01DX009 (ip), vehicle: water) 180 % of control and 194 % of control; (dose: 3.13 mg/kg/injection, schedule: Q01DX009 (ip), vehicle: water) 200 % of control and 203 % of control; (dose: 6.25 mg/kg/injection, schedule: Q01DX009 (ip), vehicle: water) 93 % of control and 98 % of control.
As to `CCOC(=O)C1NC(=O)C(C)NC1=O` (stereo not given), the T/C under setting [12] was 103 % of control, the T/C under setting [13] was 107 % of control and the T/C under setting [14] is 100 % of control.
With `O=NN(Cc1ccc(Cl)cc1)NC1=NCCN1`, the T/C was 98 % of control under setting [15], 99 % of control under setting [16] and 105 % of control under setting [17].
With `CC1=CS(=O)c2ccccc2N1C` (stereo not given), the T/C is, setting by setting: (dose: 50.0 mg/kg/injection, schedule: Q04DX002 (ip), vehicle: Klucel (hydroxypropylcellulose) (HPC)) 97 % of control; (dose: 100.0 mg/kg/injection, schedule: Q04DX002 (ip), vehicle: Klucel (hydroxypropylcellulose) (HPC)) 100 % of control; (dose: 100.0 mg/kg/injection, schedule: Q04DX002 (ip), vehicle: suspension in saline) 109 % of control; (dose: 200.0 mg/kg/injection, schedule: Q04DX002 (ip), vehicle: Klucel (hydroxypropylcellulose) (HPC)) 101 % of control; (dose: 200.0 mg/kg/injection, schedule: Q04DX002 (ip), vehicle: suspension in saline) 124 % of control; (dose: 400.0 mg/kg/injection, schedule: Q04DX002 (ip), vehicle: Klucel (hydroxypropylcellulose) (HPC)) 108 % of control. Further, for the setting “dose: 400.0 mg/kg/injection, schedule: Q04DX002 (ip), vehicle: suspension in saline”, the T/C was 117 % of control.
In the case of `CC(C)(Oc1ccc(C(=O)c2ccc(Cl)c(Cl)c2)cc1)C(=O)O`, the T/C was 94 % of control under setting [11], 102 % of control under setting [18] and 107 % of control under setting [19].
As to `CCCCCCCCCCCC(=O)c1c(O)cc(C)oc1=O`, the T/C runs as follows: under setting [12], 100 % of control; under setting [13], 98 % of control; under setting [14], 105 % of control.
Take `CC(C)(C)OC(=O)NN(CC(=O)OCc1ccccc1)N=O`: the T/C is, setting by setting: (dose: 12.5 mg/kg/injection, schedule: Q01DX009 (ip), vehicle: other) 104 % of control; (dose: 25.0 mg/kg/injection, schedule: Q01DX009 (ip), vehicle: other) 97 % of control; (dose: 50.0 mg/kg/injection, schedule: Q01DX009 (ip), vehicle: other) 97 % of control; (dose: 100.0 mg/kg/injection, schedule: Q01DX009 (ip), vehicle: other) 101 % of control; (dose: 200.0 mg/kg/injection, schedule: Q01DX009 (ip), vehicle: other) 97 % of control.
As for `COC(=O)C1(CC(=O)CC(=O)CC2(C(=O)OC)NC(=S)NC(=O)C2C#N)NC(=S)NC(=O)C1C#N` (stereo not given), the T/C is, setting by setting: under setting [7], 106 % of control; under setting [8], 100 % of control; under setting [9], 100 % of control.
Regarding `O=C(CCl)SCc1ccccc1`, the T/C (dose: 100.0 mg/kg/injection, schedule: Q04DX003 (ip), vehicle: saline with Tween-80) was 107 % of control and the T/C (dose: 200.0 mg/kg/injection, schedule: Q04DX003 (ip), vehicle: saline with Tween-80) was 99 % of control.
With `Nc1nc2nc(CBr)c(CBr)nc2c(=O)[nH]1`, the T/C is, setting by setting: under setting [10], 115 % of control; under setting [11], 118 % of control; under setting [18], 122 % of control; under setting [19], 100 % of control.
For the molecule `COC(=O)c1ccc(SCC/C(CN2C(=O)c3ccccc3C2=O)=N\O)cc1`, the T/C reads like this: under setting [15], 95 % of control; under setting [16], 99 % of control; under setting [17], 88 % of control.
Regarding `NC(=O)c1n[nH]c(=S)[nH]c1=O`, the T/C is 102 % of control under setting [4], 91 % of control under setting [5] and 96 % of control under setting [6].
For `CC(=O)OCC1OC(Nc2[nH]c(=O)n(C)c(=O)c2N=O)C(OC(C)=O)C(OC(C)=O)C1OC(C)=O` (stereo not given), the T/C reads like this: under setting [1], 104 % of control; under setting [2], 103 % of control; under setting [3], 102 % of control.
In the case of `N#CNC1=NC(c2ccccc2)CC=C1` (stereo not given), the T/C is 102 % of control under setting [11] and 113 % of control under setting [18].
